Where two headings read alike, the source gives them in different places.

From patent US6458347B1, “Drug complex” (Asahi Kasei Kabushiki Kaisha, priority 1996, dated 2002) come the findings set out here.

For data set [1], the system named is B16 melanoma cells. The settings on record: 50 mg/kg in terms of paclitaxel, intravenous, six days after administration; paclitaxel 50 mg/kg. As for the experimental part: Further, a control solution was prepared by dissolving paclitaxel per se into a mixture of ethanol, Cremophore EL (manufactured and sold by Sigma, U.S.A.) and physiological saline. Thus, four types of solutions, namely, three different types of test sample solutions and one control solution were obtained.
Twenty-eight female C57BL/6 mice (six weeks old) were divided into four groups, each consisting of seven mice, and subsequently, B16 melanoma cells were intradermally transplanted to the groin of each of the mice (5×10^6 cells per mouse). After eight days from the transplantation, the above-mentioned four types of solutions were administered to the transplanted mice at the tails thereof intravenously so that the mice belonging to the same group received the administration of the same type of solution. […] With respect to the control solution, the dose of paclitaxel was 50 mg/kg.
(§1) Separately, a group consisting of thirteen mice, which were transplanted with B16 melanoma cells in the same manner as mentioned above, was provided. Each of the mice of such group received the administration of physiological saline, to thereby obtain a non-treated group of mice.
The tumor volume was determined as follows. The external major and minor diameters (a and b, respectively) (each in mm) of the tumor were measured, and the tumor volume (V) was obtained according to the following formula. [formula]

For data set [2] the following is noted: serum, 37° C.; serum species and time not stated. The method, then:
Each of compounds (24), (26), (28) and (30) (drug complexes) obtained in Example 8 was dissolved in physiological saline so that the concentration thereof in terms of dexamethasone was 80 μg/ml, to thereby obtain four solutions. 50 μl of each of the above-obtained four solutions was individually added to each of 250 μl of mouse serum and 250 μl of human serum, and the amounts of dexamethasone released from the respective compounds at 37° C. were determined as follows.
The recovery and quantitative analysis of dexamethasone in serum were conducted as follows: 250 μl of phosphate buffer (pH 7.4) was added to […] of each of the sera to which the above-mentioned solution was added, to thereby obtain a mixture. To the obtained mixture was added 3 ml of a solution of hydrocortisone acetate (as an internal standard for the below-mentioned HPLC analysis, the concentration of hydrocortisone acetate: 10 ng/ml) in a mixture of acetonitrile and methanol (acetonitrile/methanol=4/1) and subjected to centrifugation (3,000 rpm, 10 minutes, 4° C.). To 700 μl of the resultant supernatant was added 700 µl of distilled water, to thereby obtain a mixture. The obtained mixture was subjected to filtration with a membrane filter (pore size 0.2 μm), and the resultant filtrate was used as a sample for the quantitative analysis of dexamethasone by HPLC under the following conditions. […]
Column: Asahipak […] C18 (4.6×150 mm)
Column temperature: room temperature
The detected wavelength: 254 nm
Mobile phase: Linear gradient
0 min.: 20% aqueous acetonitrile (20% CH3CN/H2O)
20 min.: 50% aqueous acetonitrile (50% CH3CN/H2O)

Data set [3] deals with colon 26 tumor cells. The settings on record: 50 mg/kg in terms of paclitaxel, intravenous, repeated every 4 days; paclitaxel 50 mg/kg. As for the experimental part: (§2) Further, a control solution was prepared by dissolving paclitaxel per se into a mixture of ethanol, Cremophore EL (manufactured and sold by Sigma, U.S.A.) and physiological saline.
(§3) With respect to the control solution, the dose of paclitaxel was 50 mg/kg.
Each of the mice of such group received the administration of only physiological saline in the same manner as in the case of the administration of the test sample solution, to thereby obtain a non-treated group of mice.
Evaluation was made of the antitumor activity in terms of the change (with the lapse of time) of the average tumor volume (%).
(§4) The tumor volume was determined as follows. […] [formula]

Data set [4] deals with B16 melanoma cells. The settings on record: 50 mg/kg in terms of paclitaxel, intravenous, six days after administration; paclitaxel 50 mg/kg. As for the experimental part:
as §2, §3, §1, §4
The source holds these as a separate data set.

Data set [5] can be described thus: Dissolution in physiological saline. The settings on record: 1 mg in 10 ml of physiological saline. The class given is physicochemical.

For “carboxymethylated dextran-2′-Ile-paclitaxel [compound (15)]”, in data set [1], the “antitumor activity (relative average tumor volume) as compared to paclitaxel per se” value is given as “relatively weak”.

With “carboxymethylated dextran-2′-Ala-paclitaxel [compound (7)]”, the “antitumor activity (relative average tumor volume) as compared to paclitaxel per se” value in data set [1] is recorded as “excellent”.

For the compound `CCC(=O)OCC(=O)[C@@]1(O)[C@H](C)C[C@H]2[C@@H]3CCC4=CC(=O)C=C[C@]4(C)[C@@]3(F)[C@@H](O)C[C@@]21C` [compound (30), 21-propanoyl-dexamethasone], the “dexamethasone introduced into the compound that was released” value in data set [2] was at least 98%.

On to `CCC(=O)NCC(=O)OCC(=O)[C@@]1(O)[C@H](C)C[C@H]2[C@@H]3CCC4=CC(=O)C=C[C@]4(C)[C@@]3(F)[C@@H](O)C[C@@]21C` [compound (26), 21-propanoylglycyl-dexamethasone], for which the “dexamethasone introduced into the compound that was released” value in data set [2] is recorded as “approximately 95%”.

On to “carboxymethylated dextran-2′-Gly-Gly-Phe-Gly-paclitaxel [compound (33)]”, for which the “antitumor activity (change of average tumor volume with time) as compared to paclitaxel per se” value in data set [3] is given as “significantly excellent”. Further, the “antitumor activity (relative average tumor volume) as compared to paclitaxel per se” value in data set [4] was “significantly excellent”.

As for “carboxymethylated dextran-2′-Gly-paclitaxel [compound (3)]”, the “antitumor activity (relative average tumor volume) as compared to paclitaxel per se” value in data set [1] is on record as “significantly excellent”.

For `CC(=O)O[C@H]1C(=O)[C@@]2(C)[C@H]([C@H](OC(=O)c3ccccc3)[C@]3(O)C[C@H](OC(=O)[C@H](O)[C@@H](NC(=O)c4ccccc4)c4ccccc4)C(C)=C1C3(C)C)[C@]1(OC(C)=O)CO[C@@H]1C[C@@H]2O` [paclitaxel], the “dissolution of paclitaxel per se” value in data set [5] is given as “could not be dissolved completely”.

For `CCC(=O)N[C@@H](C)C(=O)OCC(=O)[C@@]1(O)[C@H](C)C[C@H]2[C@@H]3CCC4=CC(=O)C=C[C@]4(C)[C@@]3(F)[C@@H](O)C[C@@]21C` [compound (28), 21-propanoylalanyl-dexamethasone], the “dexamethasone introduced into the compound that was released” value in data set [2] is recorded as “approximately 70%”.

In the case of `CCC(=O)N[C@H](C(=O)OCC(=O)[C@@]1(O)[C@H](C)C[C@H]2[C@@H]3CCC4=CC(=O)C=C[C@]4(C)[C@@]3(F)[C@@H](O)C[C@@]21C)[C@@H](C)CC` [compound (24), 21-propanoylisoleucyl-dexamethasone], the “dexamethasone introduced into the compound that was released” value in data set [2] is reported as at most 10%.
